Laboratory results published in ChEMBL document CHEMBL1201862, “PubChem BioAssay data set” (2004).
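Interpolation was linear, between the two tested concentrations surrounding the appropriate level; five concentrations were tested over 48 hours in 96-well plates. Abbreviation: GI50, concentration required for 50% inhibition of growth.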 Calls of active or inactive are those of the source. Rule as the data show it: active = GI50 up to about 1.1 µM and inactive = higher.

Columns and labels:
Test in all cases: DTP human tumour cell line panel, 48 h
SF-268 = tested on: SF-268
786-0 = tested on: 786-0
SW-620 = tested on: SW-620
SF-539 = tested on: SF-539
HOP-62 = tested on: HOP-62
SK-MEL-28 = tested on: SK-MEL-28
HCT-116 = tested on: HCT-116
A498 = tested on: A498
CCRF-CEM = tested on: CCRF-CEM
SNB-75 = tested on: SNB-75
OVCAR-4 = tested on: OVCAR-4
EKVX = tested on: EKVX
OVCAR-5 = tested on: OVCAR-5
A549 = tested on: A549
PC-3 = tested on: PC-3
HCT-15 = tested on: HCT-15
MCF7 = tested on: MCF7
SF-295 = tested on: SF-295
HCC 2998 = tested on: HCC 2998
LOX IMVI = tested on: LOX IMVI

Row | SMILES | GI50 (SF-268) | GI50 (786-0) | GI50 (SW-620) | GI50 (SF-539) | GI50 (HOP-62) | GI50 (SK-MEL-28) | GI50 (HCT-116) | GI50 (A498) | GI50 (CCRF-CEM) | GI50 (SNB-75) | GI50 (OVCAR-4) | GI50 (EKVX) | GI50 (OVCAR-5) | GI50 (A549) | GI50 (PC-3) | GI50 (HCT-15) [µM] | GI50 (MCF7) | GI50 (SF-295) | GI50 (HCC 2998) | GI50 (LOX IMVI)
1 | CCOC(=O)c1nc2cc(N3CCOCC3)c(F)cc2[nH]c1=O | > 100 µM (inactive) | > 100 µM (inactive) | > 100 µM (inactive) | > 100 µM (inactive) | 57.5 µM (inactive) | > 100 µM (inactive) | > 100 µM (inactive) | > 100 µM (inactive) | 91.8 µM (inactive) | 52 µM (inactive) | > 100 µM (inactive) | 4.67 µM (inactive) | 64.3 µM (inactive) | > 100 µM (inactive) | > 100 µM (inactive) | > 100 | > 100 µM (inactive) | 83.4 µM (inactive) | > 100 µM (inactive) | 
2 | Cc1cc2c(c(C(=O)NCCC(=O)O)c1)Oc1c(cc(C)cc1C(=O)NCCC(=O)O)S2 | > 100 µM (inactive) | > 100 µM (inactive) | > 100 µM (inactive) | > 100 µM (inactive) | > 100 µM (inactive) | > 100 µM (inactive) | > 100 µM (inactive) |  | > 100 µM (inactive) | > 100 µM (inactive) | > 100 µM (inactive) | > 100 µM (inactive) | > 100 µM (inactive) | > 100 µM (inactive) | > 100 µM (inactive) | > 100 | > 100 µM (inactive) | > 100 µM (inactive) | > 100 µM (inactive) | > 100 µM (inactive)
3 | Cc1[nH]n(-c2nc(-c3ccccc3)cc(=O)[nH]2)c(=O)c1CCO | > 100 µM (inactive) | > 100 µM (inactive) | > 100 µM (inactive) | > 100 µM (inactive) | > 100 µM (inactive) | > 100 µM (inactive) | > 100 µM (inactive) |  | > 100 µM (inactive) |  | > 100 µM (inactive) | > 100 µM (inactive) | > 100 µM (inactive) | > 100 µM (inactive) | > 100 µM (inactive) | > 100 | > 100 µM (inactive) | > 100 µM (inactive) | > 100 µM (inactive) | > 100 µM (inactive)
4 | Cc1cc(Cl)ccc1NC(=O)/C(CC(=O)CC(c1ccccc1)c1c(O)c2ccccc2oc1=O)=N\O (stereo not drawn) | > 100 µM (inactive) | > 100 µM (inactive) | > 100 µM (inactive) | > 100 µM (inactive) | > 100 µM (inactive) | > 100 µM (inactive) | > 100 µM (inactive) |  | 7.87 µM (inactive) | > 100 µM (inactive) | > 100 µM (inactive) | > 100 µM (inactive) | > 100 µM (inactive) | > 100 µM (inactive) | > 100 µM (inactive) | > 100 | > 100 µM (inactive) | > 100 µM (inactive) | > 100 µM (inactive) | > 100 µM (inactive)
5 | CCC1CC(=O)N(SCC(N)C(=O)O)C1=O (stereo not drawn) | > 100 µM (inactive) | > 100 µM (inactive) | > 100 µM (inactive) | > 100 µM (inactive) | > 100 µM (inactive) | > 100 µM (inactive) | > 100 µM (inactive) | > 100 µM (inactive) | > 100 µM (inactive) | > 100 µM (inactive) | > 100 µM (inactive) | > 100 µM (inactive) | > 100 µM (inactive) | > 100 µM (inactive) | > 100 µM (inactive) | > 100 | > 100 µM (inactive) | > 100 µM (inactive) |  | > 100 µM (inactive)
6 | C/C1=C/C(=O)O[C@@H]2C[C@@H](CC[C@H](C)/C=C\C=C\CC1)O[C@@](O)([C@@H]1CSC(=O)N1)C2 [LATRUNCULIN A] | 0.305 µM (active) | 0.226 µM (active) |  | 0.171 µM (active) | 0.178 µM (active) | 1.12 µM (inactive) | 0.773 µM (active) | 0.111 µM (active) | 0.438 µM (active) | 0.075 µM (active) | 1.02 µM (active) | 0.74 µM (active) | 0.484 µM (active) | 0.564 µM (active) | 0.299 µM (active) | 0.52 | 1.28 µM (inactive) | 0.262 µM (active) | > 2.97 µM (inactive) | 
7 | O=P(O)(O)CN1CCNCCN(CP(=O)(O)O)CCN(CP(=O)(O)O)CCNCC1 | > 100000 µM (inactive) | > 100 µM (inactive) | > 100 µM (inactive) | > 100 µM (inactive) | > 100 µM (inactive) | > 100 µM (inactive) | 54600 µM (inactive) | 93.5 µM (inactive) | > 100 µM (inactive) | 24.4 µM (inactive) | > 100 µM (inactive) | > 100 µM (inactive) | > 100 µM (inactive) | 42600 µM (inactive) | > 100 µM (inactive) | > 100 | > 100 µM (inactive) | > 100 µM (inactive) |  | 91800 µM (inactive)
8 | O=C(CN1c2ccccc2Sc2ccccc21)n1cnc2ccccc21 | > 100 µM (inactive) | 52.6 µM (inactive) | > 100 µM (inactive) | > 100 µM (inactive) | > 100 µM (inactive) | > 100 µM (inactive) | > 100 µM (inactive) | 45.3 µM (inactive) | 73.1 µM (inactive) | > 100 µM (inactive) | 69 µM (inactive) | > 100 µM (inactive) | 80 µM (inactive) | > 100 µM (inactive) | 70.6 µM (inactive) | 99.8 | > 100 µM (inactive) | > 100 µM (inactive) |  | 95.3 µM (inactive)
9 | O=[N+]([O-])c1cccc(-c2cn3c(n2)Cc2ccccc2C3)c1 | > 100 µM (inactive) | > 100 µM (inactive) | > 100 µM (inactive) | 57.4 µM (inactive) | 29.1 µM (inactive) | > 100 µM (inactive) | 23.9 µM (inactive) | 16.9 µM (inactive) | 15.9 µM (inactive) | > 100 µM (inactive) | > 100 µM (inactive) | 90.2 µM (inactive) | 17.8 µM (inactive) | 64.1 µM (inactive) | 77.4 µM (inactive) | > 100 | 3.88 µM (inactive) | 78.5 µM (inactive) |  | 39.8 µM (inactive)
10 | CCN(CC)CCC(=O)NC1c2ccc(Cl)cc2Oc2c(C)cccc21 (stereo not drawn) | 8.53 µM (inactive) | 12.6 µM (inactive) | 16.7 µM (inactive) | 13.2 µM (inactive) | > 10 µM (inactive) | 14.6 µM (inactive) | 16.3 µM (inactive) |  | 17.2 µM (inactive) | 10.2 µM (inactive) | 14.3 µM (inactive) | 13.4 µM (inactive) | 15.6 µM (inactive) | 16.5 µM (inactive) | 13.2 µM (inactive) | 18.7 | 15.7 µM (inactive) | 18.6 µM (inactive) | 24.2 µM (inactive) | 14.5 µM (inactive)
11 | CO/C(=N\N=C\c1cccc(Cl)c1)c1ccncc1 | > 10 µM (inactive) | > 10 µM (inactive) | > 10 µM (inactive) |  | > 10 µM (inactive) |  | > 10 µM (inactive) |  | > 10 µM (inactive) |  | > 10 µM (inactive) | > 10 µM (inactive) | > 10 µM (inactive) | > 10 µM (inactive) | > 10 µM (inactive) | > 10 | > 10 µM (inactive) | > 10 µM (inactive) | > 10 µM (inactive) | > 10 µM (inactive)
12 | O=P1(Cc2ccccc2)N(Cc2ccccc2)[C@@H]2CCCC[C@H]2N1Cc1ccccc1 | 11.1 µM (inactive) | 13 µM (inactive) | 10.1 µM (inactive) | 17 µM (inactive) | 15.5 µM (inactive) | 16.8 µM (inactive) | 6.73 µM (inactive) |  | 4.76 µM (inactive) | 6.79 µM (inactive) | 3.01 µM (inactive) | 9.62 µM (inactive) | 11.6 µM (inactive) | 6.17 µM (inactive) | 4.18 µM (inactive) | 9.91 | 6.89 µM (inactive) | 6.59 µM (inactive) | 8.89 µM (inactive) | 12.2 µM (inactive)
13 | CCCC(C)c1c(Cl)nc(Cl)nc1Cl (stereo not drawn) | 10.3 µM (inactive) | 4.79 µM (inactive) | 4.23 µM (inactive) | 5.73 µM (inactive) | 8.36 µM (inactive) | 3.52 µM (inactive) | 1.73 µM (inactive) |  | 0.189 µM (active) | 14.5 µM (inactive) | 17.1 µM (inactive) | 18.3 µM (inactive) | 21.2 µM (inactive) | 10.1 µM (inactive) | 14.8 µM (inactive) | 7.38 | 8.55 µM (inactive) | 18.5 µM (inactive) | 5.18 µM (inactive) | 1.66 µM (inactive)
14 | COc1ccc(/C=C(\C#N)c2nc(N)nc(N3N=C(C)CC3(C)C)n2)c(O)c1 | 17.2 µM (inactive) | 16.4 µM (inactive) |  | 15.7 µM (inactive) | 24.1 µM (inactive) | 14.5 µM (inactive) | 17.6 µM (inactive) | 28.4 µM (inactive) | 40.2 µM (inactive) |  | 15.8 µM (inactive) | 20.5 µM (inactive) | 15.3 µM (inactive) | 18.8 µM (inactive) | 37.9 µM (inactive) | 17.7 | 18.5 µM (inactive) | 19.1 µM (inactive) | 19.2 µM (inactive) | 
15 | C=C(COC(=O)C(C)C)[C@H]1Oc2ccc(C(C)=O)cc2[C@@H]1OC(=O)C(C)C | > 100 µM (inactive) | > 100 µM (inactive) | > 100 µM (inactive) | > 100 µM (inactive) | > 100 µM (inactive) | > 100 µM (inactive) | > 100 µM (inactive) |  | > 100 µM (inactive) | > 100 µM (inactive) | > 100 µM (inactive) | > 100 µM (inactive) | > 100 µM (inactive) | > 100 µM (inactive) | > 100 µM (inactive) | > 100 | > 100 µM (inactive) | > 100 µM (inactive) | > 100 µM (inactive) | > 100 µM (inactive)
